Data as given in patent publication US10517889B2, “Modulators of SMAD7 expression” (Ionis Pharmaceuticals, Inc., priority 2017, dated 2019).
Strand notation (5' to 3'): a small letter for the sugar, then the base; units joined by * are phosphorothioate-linked, units joined directly phosphodiester-linked; [ ] holds rarer units or linkages, { } end groups; capitals alone tell only the bases. k = constrained ethyl (cEt); [5mC] = 5-methylcytosine; d = 2'-deoxy (DNA)

How the values were obtained:
human SMAD7 mRNA [1] = test: Antisense inhibition of human SMAD7 mRNA expression in Hep3B cells by 3-10-3 cEt gapmers, 10,000 nM, electroporation (Example 2); assay type: cell-based; conditions: approximately 24 hours
In short: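 Percent inhibition of SMAD7 mRNA, relative to untreated cells, after ~24 h exposure of electroporated Hep3B cells to 10,000 nM cEt gapmer; levels by qRT-PCR, corrected for total RNA.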

human SMAD7 mRNA [2] = test: Dose-dependent inhibition of human SMAD7 mRNA expression in Hep3B cells (Example 3, Study 1 and 2); assay type: cell-based; conditions: electroporation; for % inhibition of SMAD7 mRNA expression: approximately 16 hours; for IC50: Study 2 (740-20000 nM)
Experimental: The antisense oligonucleotides were tested in a series of experiments that had similar culture conditions as described below.
(§1) Cells were plated at a density of 20,000 cells per well and transfected using electroporation with 0.31 μM, 1.25 μM, 5.00 μM, or 20.00 μM concentrations of antisense oligonucleotide, as specified in the Tables below. ION 483663 was included in the assays for comparison. After a treatment period of approximately 16 hours, RNA was isolated from the cells and SMAD7 mRNA levels were measured by quantitative real-time PCR. Primer probe set RTS5062 was used to measure human SMAD7 mRNA levels. SMAD7 mRNA levels were adjusted according to total RNA content, as measured by RIBOGREEN®. Results are presented as percent inhibition of SMAD7 mRNA expression, relative to untreated control cells.
The half maximal inhibitory concentration (IC50) of each oligonucleotide is also presented.
as §1, with “0.74” for “0.31”, “2.22” for “1.25”, “6.67” for “5.00”, “below.” for “below. ION 483663 was included in the assays for comparison.”

[3] = Hep3B cells, electroporation with 10,000 nM antisense oligonucleotide, SMAD7 mRNA by RT-PCR (RTS5062), relative to untreated control cells
[4] = 740 nM, Study 2, relative to untreated control cells
[5] = Hep3B cells, electroporation with 10,000 nM antisense oligonucleotide, primer probe set RTS5062, relative to untreated control cells
[6] = Hep3B cells, electroporation, 10,000 nM antisense oligonucleotide, RTS5062, relative to untreated control cells
[7] = Hep3B cells, electroporation with 10,000 nM antisense oligonucleotide, RTS5062, percent inhibition of SMAD7 mRNA relative to untreated control cells

| Substance | % Inhibition (human SMAD7 mRNA [1]; [3]) | % inhibition of SMAD7 mRNA expression (human SMAD7 mRNA [2]; [4]) | % inhibition of SMAD7 mRNA expression (human SMAD7 mRNA [2]; 2220 nM, Study 2) | % inhibition of SMAD7 mRNA expression (human SMAD7 mRNA [2]; 6670.0 nM, Study 2) | % inhibition of SMAD7 mRNA expression (human SMAD7 mRNA [2]; 20000.0 nM, Study 2) | IC50 (human SMAD7 mRNA [2]) | % Inhibition (human SMAD7 mRNA [1]; [5]) | % inhibition of SMAD7 mRNA expression (human SMAD7 mRNA [1]; [6]) | % inhibition of SMAD7 mRNA expression (human SMAD7 mRNA [1]; [5]) | % Inhibition (human SMAD7 mRNA [1]; [7]) | % Inhibition (human SMAD7 mRNA [1]; Hep3B cells, 10,000 nM antisense oligonucleotide, electroporation, RT-PCR primer probe set RTS5062, relative to untreated control cells) |
| --- | --- | --- | --- | --- | --- | --- | --- | --- | --- | --- | --- |
| 799412 (antisense kT*kT*k[5mC]*dT*dT*dA*d[5mC]*dA*d[5mC]*dA*dG*d[5mC]*dA*kG*k[5mC]*kG) [compound 799412] | 60% | 35% | 51% | 67% | 65% | 4 µM | – | – | – | – | – |
| 799118 (antisense kA*kG*kA*dG*d[5mC]*dT*dT*dA*dA*d[5mC]*dA*d[5mC]*dA*k[5mC]*kA*kG) [compound 799118] | – | 0% | 16% | 50% | 75% | < 0.7 µM | 71% | – | – | – | – |
| 830137 (antisense kA*kT*kG*dA*dA*dA*dG*dT*dA*d[5mC]*dA*dA*dT*k[5mC]*kT*k[5mC]) [compound 830137] | 68% | 19% | 46% | 63% | 84% | 3 µM | – | – | – | – | – |
| 799755 (antisense kG*kA*kA*dA*dG*dT*dT*dA*d[5mC]*dA*dG*dA*dA*k[5mC]*kT*k[5mC]) [compound 799755] | – | 13% | 44% | 66% | 75% | 6 µM | – | 77% | – | – | – |
| 799402 (antisense kG*kG*kT*d[5mC]*dA*d[5mC]*dT*dG*dT*dT*d[5mC]*dT*d[5mC]*kT*k[5mC]*kT) [compound 799402] | – | 0% | 3% | 13% | 50% | 10 µM | – | – | 66% | – | – |
| 799686 (antisense kG*kA*kG*dA*dT*dT*dT*dT*dA*dA*dA*dT*dG*k[5mC]*kT*kG) [compound 799686] | – | 18% | 35% | 36% | 56% | 2 µM | – | – | – | 62% | – |
| 799787 (k[5mC]*k[5mC]*kA*dA*dA*dG*d[5mC]*dA*dG*dA*dA*dG*dT*kA*kG*kA; antisense) [compound 799787] | – | 0% | 9% | 35% | 41% | 18 µM | – | – | – | 58% | – |
| 830100 (kG*kG*kA*dG*d[5mC]*dT*d[5mC]*dA*dA*dA*d[5mC]*dT*dT*kT*kG*kA; antisense) [compound 830100] | 61% | 3% | 8% | 38% | 69% | 2 µM | – | – | – | – | – |
| 799878 (kG*k[5mC]*k[5mC]*d[5mC]*d[5mC]*d[5mC]*d[5mC]*dT*d[5mC]*d[5mC]*d[5mC]*d[5mC]*dG*kT*kG*k[5mC]; antisense) [compound 799878] | – | 35% | 64% | 68% | 84% | 17 µM | – | – | – | – | 70% |
| 799673 (antisense k[5mC]*kT*kG*dA*dT*dT*dA*dA*d[5mC]*dT*dT*dT*d[5mC]*k[5mC]*kT*kT) [compound 799673] | – | 29% | 66% | 74% | 86% | 4 µM | – | 64% | – | – | – |
